# Results: patent US20060234919A1, “Use” (priority 2001, published 2006)
# Key:
# Assay type in all cases: in vivo, rat
# [1] = system: caerulein-induced pancreatitis; experiment: caerulein-induced pancreatitis, pancreatic edema; conditions: subcutaneous pre-treatment 1 mg/ml; caerulein alone 8.11±0.96, control 3.12±0.52
# Description: Caerulein-induced pancreatitis: Female Sprague-Dawley rats (200-250 g) were anaesthetized with pentobarbitone sodium and phenobarbitone sodium (each 40 mg/kg, i.p.). The cholecystokinin analogue caerulein (8 nmol/kg in 2 h) was infused via one jugular vein for exocrine hyperstimulation and induction of acute edematous pancreatitis (Lampel M, Kern H F. Acute interstitial pancreatitis in the rat in-duced by excessive doses of a pancreatic secretagogue. Virchows Arch (Pathol Anat) 1997; 373: 97-117), while control animals were infused with a corresponding volume (4 ml/kg/h) of phosphate-buffered saline. Pre-treatment with the kininase II inhibitor captopril ([…], i. p.) was given 30 min prior to the infusion of caerulein. At the end of the experiment, the animals were sacrificed with an overdose of pentobarbital sodium. The pancreatic tissue was dried for 16 h in a vacuum centrifuge and the edema was quantified as fluid wt. per dry wt. of the tissue. For the determination of lipase activity in serum, the blood was collected following decapitation in separate groups of rats. The pancreas of these animals was excised an placed immediately into 2 ml of a 154 mmol/l solution of NaCl. After centrifugation at 2×10^5 m/s^2 for 25 min the supernatant was stored at −80° C. All samples were assayed for lipase activity (lipase test Boehringer Mannheim, Germany).
# [2] = system: carrageenan induced hyperalgesia; experiment: carrageenan induced hyperalgesia, Randall Selitto Test; conditions: 1000 μg/kg s.c.; 1 hour and 6 hours after the injection, compared to controls; p<0.05
# Description: Nociceptive thresholds were measured in the rats given oxytocin 1000 μg/kg s.c. and their controls. This was done by determining the response to mechanical stimulation using the Randall Selitto Test (Ugo Basile, type 7200, Italy). The mechanical stimulus was applied to the dorsal surface of the hindpaw by a wedged-shape pusher at a loading rate of 48 g/s and the pressure required to initiate the struggle response was measured. All rats were trained on three consecutive days before testing.
# N-acetyl-LTE4 = experiment: OVA-induced N-acetyl-LTE4 synthesis in BN rats (experimental asthma model); conditions: for biliary excretion of N-acetyl-LTE4: 1.0 mg/kg by aerosol
# Description: Inbred male BN rats, 7-9 weeks old, were obtained from Harlan Sprague-Dawley. Active sensitisation was performed by subcutaneous injection of 1 ml of saline containing 1 mg of ovalbumin and 3.48 mg of aluminum hydroxide. At the same time, 0.3 ml of Bordetella pertussis vaccine containing heat-killed organisms was given intraperitoneally as an adjuvant. Animals were studied 14-21 days after sensitisation.
# Two groups of rats (n=3 for each group) were lightly anaesthetised with xylazine (7 mg/kg) and pentobarbital (30 mg/kg ip) before endotracheal intubation. Each rat then received either saline or 1.0 mg/kg oxytocin (1.0 mg/ml) by aerosol over a period of 5 min using a disposable nebulizer at a flow rate of […] and an output of 0.15 ml/min. Seventeen hours later, the animals were again anaesthetised, and these treatments were repeated. After a further hour, each of the rats was challenged with aerosolised 5% OVA in saline for 5 min.
# Before the second treatment with oxytocin or saline, the rats were anaesthetised with urethane (1 g/kg ip, 50% wt/vol). After blind orotracheal intubation (6 cm of PE-240 polyethylene catheter), the common bile duct was exposed and cannulated (15 cm of PE-20 polyethylene tubing) after ligation of duodenal end. The rats were allowed to stabilise for a period of 2 h before challenge with OVA. Bile was collected for 1 h before and for 2 consecutive periods of 1 h after OVA challenge ([…]). All bile samples were collected on ice in 1.5-ml Eppendorf tubes. The bile was kept frozen at […] before analysis.
# Bile samples were thawed, and methanol was added to 0.3-ml aliquots to give a final concentration of 80%. […] Ultraviolet absorbance was monitored by a variable wavelength ultraviolet detector. […]
# Column fractions were evaporated to dryness in a centrifuge under vacuum, and the residues were dissolved in phosphate-buffered saline (0.1 ml at pH 8.2). N-acetyl-LTE4 was measured in each fraction by using a monoclonal antibody directed against LTC4, which cross-reacted with N-acetyl-LTE4. […]
# TNF-alpha = TNF-alpha in BALF in SDX-induced eosinophilic airway inflammation; conditions: 1 mg/ml s.c.
# Description: 12 male Wistar rats aged 11-12 weeks, with an average weight of 323 g, were used in the study. The animals (n=3 in each group) were evaluated at 3 h and 24 h after induced inflammation. These were compared with control animals (n=3 in each group) examined at the same time points. An eosinophilic airway inflammation was induced by intratracheal instillation of SDX particles (G-200 Superfine, Pharmacia & Upjohn, Uppsala, Sweden) dissolved in phosphate-buffered saline (PBS) as previously described (Andersson S E, Zackrisson C, Hemsen A, Lundberg J M. Regulation of lung endothelin content by the glucocorticosteroid budesonide. Biochem Biophys Res Commun 1992, 188:1116-1121) and compared with that in control animals receiving a similar volume of PBS intratracheally. BAL was performed by instillation of 3+2+2 ml of PBS in the right stem bronchus distal to the upper lobe, and the procedure was repeated in the main bronchus on the left side. Immediately after the BAL procedure, the lungs were removed and frozen in liquid nitrogen for tissue analyses 3 h and 24 h after SDX instillation (n=3 animals at each time point) and 3 h and 24 after intratracheal instillation of saline into control animals (n=3). Oxytocin 1 mg/ml was given s.c.
# TNF-alpha was measured with a rat-specific sandwich enzyme-linked immunosorbent assay (ELISA; Factor-Test-X, Genzyme, Cambridge, Mass.). […]
substance,measurement,setting,value
Oxytocin,water content of the pancreatic tissue (edema formation),[1],5.25±0.68 g/g d. wt.
same,"nociceptive threshold, response to mechanical stimulation",[2],increase in withdrawal latency
same,biliary excretion of N-acetyl-LTE4,"N-acetyl-LTE4; early response 0-1 h after OVA challenge, control 6.9±1.8",4.3 ± 2.1 pmol/h
same,biliary excretion of N-acetyl-LTE4,"N-acetyl-LTE4; late response 5-6 h after OVA challenge, control 5.2±0.9",2.6 ± 0.8 pmol/h
same,levels of N-acetyl-LTE4 in oxytocin-treated vs control groups,N-acetyl-LTE4; before OVA challenge,almost identical
same,TNF-alpha concentration in BALF,TNF-alpha; 3 h after SDX provocation,effectively inhibited the increase
same,TNF-alpha level relative to animals not receiving oxytocin,TNF-alpha; 24 h after SDX provocation,32%
